These results are taken from patent EP0137426A2, “2-Mercaptothiazole derivatives, process for their preparation and utilization of 2-mercaptothiazole derivatives in pharmaceutical compounds” (BAYER AG, priority 1983, dated 1985).

For assay [1], the system named is TXA2. Kind of assay: Inhibition of thromboxane-induced isometric contraction of rabbit aortic strips (TXA2 generated from washed human platelets). Format: cell-based, Kaninchen. The settings on record: Oryctolagus cuniculus, Platelet, thromboxane-induced vessel contraction, read-out: Hemmung (%) (x̄ ± SEM); for inhibition at 30 µg/mL: Konzentration 3 x 10^-5 g/ml. As for the experimental part: Gefäßkonstriktorische Wirkung
Die gefäßkonstriktorische Wirkung von Thromboxan wird mit Hilfe der isometrischen Kontraktion von Kaninchenaortenstreifen gemessen (Furchtgott, R. F; Bhadrakom, S. J., Pharmacol. Exp. Ther. 108, 129 - 143, 1953). Männliche Kaninchen (Russen, Gewicht 1,8 - 2 kg) werden mit Pento- -barbital getötet. Die Brustaorta wird entnommen und spiral--förmig aufgeschnitten. Die Streifen (Breite 2 - 3 mm, Länge 3 cm) werden unter einer Spannung von 2 g in 10 ml - Organbädern, die Carbogen durchperlten Krebs-Henseleit-Puffer von 37°C enthalten, suspendiert. Zur Erhöhung der Spezifität der Methode enthält der Puffer folgende Inhibitoren (jeweils 100 µg/l): Propanololhydrochlorid, Phentolamin, Cyproheptadin, Atropin, Mebhydrolin und Indometacin. Die Kontraktionen werden nach Erreichen eines konstanten Basaltonus durch TXA2, generiert aus gewaschenen Human-Thrombozyten, ausgelöst.
Zur Präparation der Thrombozytensuspension wird Humanblut in 1 %iger EDTA-Lösung aufgenommen und bei 150 G 20 Minuten lang zentrifugiert. Das plättchenreiche Plasma wird abgehebert und bei 750 G für 20 Minuten zentrifugiert. Das plättchenarme Plasma wird abdekantiert und die verbleibenden Plättchen in Puffer (0,15 M NaCl, 0,15 M Tris/ HC1 pH 7.4, 77 mM EDTA; 90 : 8 : 2) aufgenommen.
Die Thromboxan-Generation erfolgt durch Stimulation der Plättchen mit Thrombin bei 37°C unter Rühren. Nach 30 sec wird die Plättchensuspension zu dem mit Prüfsubstanz bzw. Lösungsmittel vorbehandelten Aortenstreifen gegeben und damit die Kontraktionen ausgelöst. Die prozentuale Hemmung errechnet sich aus den entsprechenden Ausschlägen.
An den in der folgenden Tabelle 1 genannten Verbindungen wurde die spezifische Hemmung der durch Thromboxan induzierten Gefäßkontraktionen bestimmt.

The subject of the next assay is Thrombozyten. Kind of assay: Inhibition of collagen-induced platelet aggregation in platelet-rich plasma (turbidimetric, Born). Type of assay: cell-based. The settings on record: Homo sapiens, Konzentration 3 x 10^-5 g/ml, PRP, 37°C, read-out: Hemmung (%) (x̄ ± SEM). As for the experimental part: Thrombocytenaggregationshemmung
Für die Bestimmung der thrombocytenaggregationshemmenden Wirkung wird Blut von gesunden Spendern, die mindestens 14 Tage lang kein Medikament eingenommen hatten, verwendet. Das Blut wird in 3.8 %iger Natriumcitratlösung aufgenommen. Plättchenreiches Plasma (PRP) wird durch 20 min. lange Zentrifugation bei 150 G bei Raumtemperatur gewonnen (Jürgens/Beller: Klinische Methoden der Blutgerinnungsanalyse; Thieme-Verlag, Stuttgart 1959). Die Plättchenaggregation wird nach der turbidometrischen Methode (Born, G. V. R.: J. Physiol. 162 67, 1962) im Aggregometer bei 37°C bestimmt. Hierzu wird PRP mit Prüfsubstanz bei 37°C inkubiert und anschließend die Aggregation durch Zugabe einer Kollagensuspension ausgelöst. Die prozentuale Hemmung errechnet sich aus den entsprechenden Ausschlägen.
An den in der folgenden Tabelle 2 genannten Verbindungen wurde die Hemmung der Kollagen-induzierten Thrombozytenaggregation untersucht.

Assay [2] relates to TXA2. The settings on record: literature: Tanaka, Harada, Katori, Prostaglandins 17, 235, 1979; cited from earlier work.

In the case of `O=C(O)CCCSc1nc2ccccc2s1` [Beispiel 9], the inhibition at 100 µg/mL with TXA2 [1] (Konzentration 1 x 10^-4 g/ml) is 100%. The inhibition at 10 µg/mL in the assay on TXA2 [1] (Konzentration 1 x 10^-5 g/ml) was found to be 58 ± 7%. Moreover, in the assay with TXA2 [1] (Konzentration 1 x 10^-6 g/ml), the inhibition at 1 µg/mL stood at 16 ± 7%. Further, the results for the inhibition at 30 µg/mL with TXA2 [1] and in the assay on Thrombozyten were 84 ± 3% and 52%, respectively. Also, the inhibition at 3 µg/mL in the assay on TXA2 [1] (Konzentration 3 x 10^-6 g/ml) came to 34 ± 6%.

For the molecule `O=C(O)CCCSc1nc2cc(F)c(F)cc2s1` [Beispiel 11a], the inhibition at 30 µg/mL in the assay with TXA2 [1] worked out at 82 ± 1%.

Consider `O=C(O)CCCSc1nc(Cl)c(Cl)s1` [Beispiel 21], for which the inhibition at 30 µg/mL in the assay with TXA2 [1] amounted to 59 ± 6%; with Thrombozyten it was 69%.

In the case of `O=C(O)CCCCSc1nc(Cl)c(Cl)s1` [Beispiel 23], in the assay on TXA2 [1], the inhibition at 30 µg/mL is 47 ± 10%.

With `O=C(O)CCCCSc1nc2ccccc2s1` [Beispiel 25], the inhibition at 30 µg/mL in the assay with TXA2 [1] came to 31 ± 18%.

Consider `CCOC(=O)c1c(C)cc2c(CO)n[nH]c(=O)c2c1C` [Phthalazinol], for which the “Wirkung als spezifischer TXA2-Antagonist” value with TXA2 [2] is reported as “nicht als spezifischer TXA2-Antagonist”.
